According to patent US8791267B2, “Biaryl PDE4 inhibitors for treating inflammatory, cardiovascular and CNS disorders” (Decode Genetics EHF, priority 2007, dated 2014):
Where a name gives a salt, the structure may show the parent alone.

Experiments:
[1] = molecular target: PDE4 (Homo sapiens, UniProt Q08499); experiment: In-vitro assay for PDE4 enzymes, real-time enzyme-coupled spectrophotometric assay (Table 9); format: biochemical; conditions: human PDE4D; activity class, Table 9; read-out: hPDE4D
[2] = molecular target: PDE4B (Homo sapiens, UniProt Q07343); experiment: In-vitro assay for PDE4 enzymes, real-time enzyme-coupled spectrophotometric assay, PDE4B Activity (Table 10); format: biochemical; conditions: human PDE4B (hPDE4B), enzyme-coupled spectrophotometric assay; read-out: PDE4B Activity, hPDE4B
PDE4B, sequence (Q07343 whole entry): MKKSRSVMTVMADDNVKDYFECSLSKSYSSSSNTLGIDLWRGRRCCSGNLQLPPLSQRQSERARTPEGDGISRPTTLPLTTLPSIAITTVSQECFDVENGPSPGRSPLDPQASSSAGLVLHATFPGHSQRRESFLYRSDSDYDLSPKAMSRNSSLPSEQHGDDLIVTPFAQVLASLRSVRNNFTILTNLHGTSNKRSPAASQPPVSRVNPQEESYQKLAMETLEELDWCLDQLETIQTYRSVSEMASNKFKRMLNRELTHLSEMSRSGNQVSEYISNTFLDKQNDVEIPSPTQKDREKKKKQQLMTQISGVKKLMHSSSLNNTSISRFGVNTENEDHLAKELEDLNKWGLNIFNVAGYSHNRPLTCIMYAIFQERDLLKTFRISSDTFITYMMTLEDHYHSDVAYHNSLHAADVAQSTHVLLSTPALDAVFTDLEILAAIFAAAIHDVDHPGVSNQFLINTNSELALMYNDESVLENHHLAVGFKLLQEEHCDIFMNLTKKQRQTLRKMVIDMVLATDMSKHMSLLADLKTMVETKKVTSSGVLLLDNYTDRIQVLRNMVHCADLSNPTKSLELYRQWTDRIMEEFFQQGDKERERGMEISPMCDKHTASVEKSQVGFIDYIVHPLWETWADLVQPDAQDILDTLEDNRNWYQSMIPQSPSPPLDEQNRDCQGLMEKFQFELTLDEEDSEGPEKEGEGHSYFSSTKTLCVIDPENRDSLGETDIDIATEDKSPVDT

PDE4, sequence (Q08499 whole entry): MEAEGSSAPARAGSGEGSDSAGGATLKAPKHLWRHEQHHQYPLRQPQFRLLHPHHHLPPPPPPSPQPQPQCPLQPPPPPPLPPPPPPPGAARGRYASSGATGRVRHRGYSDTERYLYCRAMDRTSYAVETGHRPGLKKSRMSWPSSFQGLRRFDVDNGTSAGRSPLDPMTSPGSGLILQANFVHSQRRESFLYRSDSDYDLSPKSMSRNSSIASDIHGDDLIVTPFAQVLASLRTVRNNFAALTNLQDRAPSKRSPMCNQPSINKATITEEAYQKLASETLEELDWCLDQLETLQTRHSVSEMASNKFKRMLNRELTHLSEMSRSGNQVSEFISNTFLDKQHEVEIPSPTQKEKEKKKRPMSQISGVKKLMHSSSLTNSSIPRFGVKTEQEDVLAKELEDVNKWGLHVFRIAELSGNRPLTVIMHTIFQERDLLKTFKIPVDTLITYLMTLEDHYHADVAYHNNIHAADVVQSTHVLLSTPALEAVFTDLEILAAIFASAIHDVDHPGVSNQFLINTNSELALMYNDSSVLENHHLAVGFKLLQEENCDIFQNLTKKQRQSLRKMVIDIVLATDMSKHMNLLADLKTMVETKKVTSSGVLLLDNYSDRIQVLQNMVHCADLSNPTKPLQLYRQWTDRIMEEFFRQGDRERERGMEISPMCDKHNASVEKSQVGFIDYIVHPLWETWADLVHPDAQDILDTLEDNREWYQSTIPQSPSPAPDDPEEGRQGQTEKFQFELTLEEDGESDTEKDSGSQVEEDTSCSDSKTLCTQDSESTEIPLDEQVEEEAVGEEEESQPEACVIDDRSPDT

IC50 [1] [µM] | IC50 [2] [µM] | SMILES
< 5 | < 5 | COc1ccc(Cc2ccc(NC(N)=O)cc2)nc1-c1cccc(Cl)c1 [P-376, {4-[6-(3-chloro-phenyl)-5-methoxy-pyridin-2-ylmethyl]-phenyl}-urea]
< 5 | < 5 | CCNC(=O)NCc1ccc(Cc2ccc(OC)c(-c3cccc(Cl)c3)c2)cn1 [P-597, 1-[5-(3′-chloro-6-methoxy-biphenyl-3-ylmethyl)-pyridin-2-ylmethyl]-3-ethyl-urea hydrochloride]
< 5 | < 5 | CCOC(=O)Nc1ccc(Cc2ccc(OC)c(-c3cccc(Cl)c3)c2F)cn1 [P-357]
< 5 | 5 to 20 | COc1ccc(CN2CCNC(=O)C2)c(F)c1-c1cccc(Cl)c1 [P-623]
< 5 | < 5 | COc1ccc(Cc2ccc(Br)nc2)c(F)c1-c1cccc(Cl)c1 [P-402, 2-Bromo-5-(3′-chloro-2-fluoro-6-methoxy-biphenyl-3-ylmethyl)-pyridine]
< 5 | < 5 | CCNC(=O)N1CCN(c2cc(Cc3ccc(OC)c(-c4cccc(Cl)c4)c3F)ccn2)CC1 [P-519, 4-[4-(3′-Chloro-2-fluoro-6-methoxy-biphenyl-3-ylmethyl)-pyridin-2-yl]-piperazine-1-carboxylic acid ethylamide]
< 5 | < 5 | COc1ccc(COc2ccnc(Cl)c2)cc1-c1cccc(Cl)c1 [P-603]
< 5 | < 5 | COc1ccc(Cn2cnc(C(N)=O)c2)c(F)c1-c1cccc(Cl)c1 [P-534, 1-(3′-Chloro-2-fluoro-6-methoxy-biphenyl-3-ylmethyl)-1H-imidazole-4-carboxylic acid amide]
< 5 | < 5 | CCNC(=O)Nc1ccc(Cc2ccc(OC)c(-c3cccc(C#N)c3)c2F)cn1 [P-405, 1-[5-(3′-Cyano-2-fluoro-6-methoxy-biphenyl-3-ylmethyl)-pyridin-2-yl]-3-ethyl-urea hydrochloride salt]
< 5 | < 5 | COc1ccc(Cc2ccc(NCC(N)=O)nc2)c(F)c1-c1cccc(Cl)c1 [P-471]
< 5 | < 5 | COc1ccc(Cc2ccc(CN)nc2)cc1-c1cccc(Cl)c1 [P-591, C-[5-(3′-chloro-6-methoxy-biphenyl-3-ylmethyl)-pyridin-2-yl]-methylamine hydrochloride]
< 5 | < 5 | COc1ccc(Cc2ccc(F)nc2)c(F)c1-c1cccc(Cl)c1 [P-456, 5-(3′Chloro-2-fluoro-6-methoxy-biphenyl-3-ylmethyl)-2-fluoro-pyridine]
< 5 | < 5 | COc1ccc(Cc2cnc(Cl)nc2)c(F)c1-c1cccc(Cl)c1 [P-392]
< 5 | < 5 | COc1ccc(Cc2ccc(N)cc2)c(F)c1-c1cccc(Br)c1 [P-453]
< 5 | < 5 | COc1ccc(Cc2ccc(-n3cnnn3)nc2)c(F)c1-c1cccc(Cl)c1 [P-422, 5-(3′-chloro-2-fluoro-6-methoxy-biphenyl-3-ylmethyl)-2-tetrazol-1-yl-pyridine]
< 5 | < 5 | CCNC(=O)OCc1ccc(Cc2ccc(OC)c(-c3cccc(Cl)c3)c2)cn1 [P-570, Ethyl-carbamic acid 5-(3′-chloro-6-methoxy-biphenyl-3-ylmethyl)-pyridin-2-ylmethyl ester hydrochloride]
< 5 | 5 to 20 | COc1ccc(Cc2ccc(CNC(=O)N3CCN(C)CC3)nc2)c(F)c1-c1cccc(Cl)c1 [P-373, 4-Methyl-piperazine-1-carboxylic acid [5-(3′-chloro-2-fluoro-6-methoxy-biphenyl-3-ylmethyl)-pyridin-2-ylmethyl]-amide]

Further lines, the molecule ahead of its results:

SMILES | IC50 [1] [µM] | IC50 [2] [µM]
COc1cc(F)c(C(O)c2ccc(F)cc2)cc1-c1cccc([N+](=O)[O-])c1 (stereo not shown) [P-093, (4-Fluoro-6-methoxy-3′-nitro-biphenyl-3-yl)-(4-fluoro-phenyl)-methanol] | < 5 | 5 to 20
COc1ccc(COC2=CC(=O)CC2)cc1-c1cccc(C(F)(F)F)c1 [P-091, 3-(6-Methoxy-3′-trifluoromethyl-biphenyl-3-ylmethoxy)-cyclopent-2-enone] | < 5 | 21 to 40
NC(=O)Nc1ccc(Cc2ccc(OC(F)F)c(-c3cccc(Br)c3)c2F)cc1 [P-323] | < 5 | < 5
COc1ccc(Cc2ccc(CNC(C)=O)c(F)c2)c(F)c1-c1cccc(C(C)=O)c1 [P-329] | < 5 | < 5
O=[N+]([O-])c1cccc(-c2cc(Cc3ccc(F)cc3)ccc2OC(F)F)c1 [P-067, 2-Difluoromethoxy-5-(4-fluoro-benzyl)-3′-nitro-biphenyl] | < 5 | < 5
COc1ccc(Cc2ccc(NC(=O)CN(C)C)cc2)c(F)c1-c1cccc([N+](=O)[O-])c1 [P-147] | < 5 | < 5
COc1ccc(Cc2ccc(C(N)=O)nc2)c(F)c1-c1cccc(C(C)=O)c1 [P-328, 5-(3′-Acetyl-2-fluoro-6-methoxy-biphenyl-3-ylmethyl)-pyridine-2-carboxylic acid amide] | < 5 | < 5
COc1ccc(Oc2ccc(N)cc2)c(F)c1-c1cccc(C(C)=O)c1 [P-283, 4-(3′-Acetyl-2-fluoro-6-methoxy-biphenyl-3-yloxy)-phenyl-amine hydrochloride salt] | < 5 | < 5
COc1ccc(Cc2ccc(NC(N)=O)nc2)c(F)c1-c1cccc(Cl)c1 [P-259] | < 5 | < 5
COc1ccc(C(O)c2ccc(F)cc2)cc1-c1cccc(-c2nnco2)c1 (stereo not shown) [P-117, (4-Fluoro-phenyl)-(6-methoxy-3′-[1,3,4]oxadiazol-2-yl-biphenyl-3-yl)-methanol] | < 5 | 21 to 40
COc1ccc(Cn2ccccc2=O)cc1-c1cccc(Cl)c1 [P-209, 1-(3′-Chloro-6-methoxy-biphenyl-3-ylmethyl)-1H-pyridin-2-one] | 5 to 20 | < 5
COc1ccc(CN2CCCC2=O)cc1-c1cccc(C(C)=O)c1 [P-172, 1-(3′-Acetyl-6-methoxy-biphenyl-3-ylmethyl)-pyrrolidin-2-one] | < 5 | < 5
COc1ccc(CN2CCNC2=O)nc1-c1cccc([N+](=O)[O-])c1 [P-033, 1-[5-methoxy-6-(3-nitro-phenyl)-pyridin-2-ylmethyl]-imidazolidin-2-one] | 5 to 20 | 5 to 20
COc1ccc(CN2C(=O)C(=O)c3ccccc32)cc1-c1cccc([N+](=O)[O-])c1 [P-041, 1-(6-Methoxy-3′-nitro-biphenyl-3-ylmethyl)-1H-indole-2,3-dione] | 5 to 20 | < 5
COc1ccc(Cc2cccc(C(N)=O)c2)cc1-c1cccc(Cl)c1 [P-282, 3-(3′-Chloro-6-methoxy-biphenyl-3-ylmethyl)-benzamide] | < 5 | 5 to 20
COc1ccc(Cc2ccc(NC(C)=O)nc2)c(F)c1-c1cccc(C(C)=O)c1 [P-345] | < 5 | < 5
CCOc1ccc(Cc2ccc(N)cc2)c(F)c1-c1cccc(C(C)=O)c1 [P-334, 1-[3′-(4-Amino-benzyl)-6′-ethoxy-2′-fluoro-biphenyl-3-yl]-ethanone; hydrochloride] | < 5 | < 5
COc1ccc(CN2CCCC2=O)cc1-c1ccc(F)c(F)c1 [P-223, 1-(3′,4′-difluoro-6-methoxy-biphenyl-3-ylmethyl)-pyrrolidin-2-one] | 5 to 20 | 5 to 20
COc1ccc(CN2C(=O)CCCC2=O)cc1-c1cccc([N+](=O)[O-])c1 [P-040, 1-(6-Methoxy-3′-nitro-biphenyl-3-ylmethyl)-piperidine-2,6-dione] | 5 to 20 | 5 to 20
COc1ccc(Cc2ccc(CO)cc2)c(O)c1-c1cccc([N+](=O)[O-])c1 [P-183, 3-(4-Hydroxymethyl-benzyl)-6-methoxy-3′-nitro-biphenyl-2-ol] | < 5 | < 5
COc1ccc(CNS(=O)(=O)c2ccc(NC(C)=O)cc2)c(F)c1-c1cccc(Cl)c1 [P-251, N-{4-[(3′-Chloro-2-fluoro-6-methoxy-biphenyl-3-ylmethyl)-sulfamoyl]-phenyl}-acetamide] | < 5 | < 5
CCOc1ccc(Cc2ccc(NC(N)=O)cc2)c(F)c1-c1cccc(C(C)=O)c1 [P-335, [4-(3′-Acetyl-6-ethoxy-2-fluoro-biphenyl-3-ylmethyl)-phenyl]-urea] | < 5 | < 5
COc1ccc(Cc2ccc(NS(C)(=O)=O)cc2)cc1-c1cccc([N+](=O)[O-])c1 [P-123] | < 5 | < 5
COc1ccc(Cc2ccc(=O)[nH]n2)cc1-c1ccc2nonc2c1 [P-012, 6-(3-Benzo[1,2,5]oxadiazol-5-yl-4-methoxy-benzyl)-2H-pyridazin-3-one] | 5 to 20 | 5 to 20
COc1ccc(Cc2ccc(CNC(C)=O)c(O)c2)c(F)c1-c1cccc(Cl)c1 [P-302] | < 5 | < 5
COc1ccc(Cn2ccc(C(N)=O)cc2=O)cc1-c1cccc([N+](=O)[O-])c1 [P-207, 1-(6-Methoxy-3′-nitro-biphenyl-3-ylmethyl)-2-oxo-1,2-dihydro-pyridine-4-carboxylic acid amide] | 5 to 20 | < 5
COc1ccc(Cc2ccc(CN)c(O)c2)c(F)c1-c1cccc(Cl)c1 [P-296] | < 5 | 21 to 40
COc1ccc(Cc2ccc(F)cc2O)cc1-c1cccc([N+](=O)[O-])c1 [P-119, 5-Fluoro-2-(6-methoxy-3′-nitro-biphenyl-3-ylmethyl)-phenol] | < 5 | < 5
COc1ccc(CN2C(=O)c3cccnc3C2=O)cc1-c1cccc([N+](=O)[O-])c1 [P-055, 6-(6-Methoxy-3′-nitro-biphenyl-3-ylmethyl)-pyrrolo[3,4-b]pyridine-5,7-dione] | < 5 | 5 to 20
COc1ccc(Cc2c(C)n[nH]c2C)cc1-c1cccc([N+](=O)[O-])c1 [P-089, 4-(6-Methoxy-3′-nitro-biphenyl-3-ylmethyl)-3,5-dimethyl-1H-pyrazole] | < 5 | < 5
